From patent US7691965B2, “Helical synthetic peptides that stimulate cellular cholesterol efflux” (The Regents of the University of California, priority 2002, dated 2010)
Where a SMILES comes first, the peptide text is derived from it.

Key:
[1] = Relative lipid binding affinity by surface balance technique (monolayer exclusion pressure); format: physicochemical; conditions: for Monolayer exclusion pressure: surface balance technique
Source text: (§1) Relative Lipid Binding Affinity, Hydrophobicity, and Amphiphilicity of Synthetic Peptides—In some experiments, the relative lipid binding affinity of unique peptides was quantified using a surface balance technique (Gillotte, K L. et al., J. Biol. Chem., 274:2021-2028 (1999)). For routine analyses, a turbid solution of dimyristoylphosphatidylcholine (DMPC) was used to assess the relative capacity of synthetic peptides to solubilize phospholipid as described (Palgunachari, M. N. et al., Arterioscler. Thromb. Vasc. Biol., 16:328-338 (1996); McLean, L. R. and Hagaman, K. A., Biochim. Biophys. Acta, 1167:289-295 (1993)). The DMPC was used at a final concentration of 0.08 mg/ml in 10 mM Tris-saline (pH 7.4). The final weight ratio of peptides relative to DMPC was 1:1. The absorbance (400 nm) of samples was monitored continuously over a period of 30 min at 25° C. Hydrophobicity of helical peptides was calculated using the consensus scale (Eisenberg D., Annu. Rev. Biochem., 53:593-623 (1984)). The hydrophobic moment (kcal/mol) of synthetic peptides, which is a measure of helix amphiphilicity, was calculated as described by Eisenberg et al. (Eisenberg, D. et al., Nature, 299:371-374 (1982)).

[2] = target: T1, ABCA1 (Mus musculus, UniProt P41233); assay: ABCA1 stabilization: immunoblot of ABCA1 protein in J774 macrophage membranes after cAMP withdrawal; format: cell-based; set-up: J774 macrophages were used to assess relative ABCA1 protein levels in the presence and absence of synthetic peptides; endogenous in cells; host or cells: J774 macrophages treated with a cAMP analog (CPT-cAMP or 8-bromo-cAMP); conditions: 20 μg/ml peptide, 6 h without cAMP, J774 macrophages
Experimental: J774 macrophages were incubated (18 h) with 0.5 mM 8-bromo-cAMP in medium containing 0.1% bovine serum albumin to up-regulate ABCA1 protein expression. Washed cells were subsequently exposed for 6 h to bovine serum albumin medium with (+) or without (−) 8-bromo-cAMP and the indicated synthetic peptides (20 μg/ml). None refers to no peptides. The cellular membrane content of ABCA1 protein was measured by immunoblot analysis.
ABCA1 Stabilization—J774 macrophages were used to assess relative ABCA1 protein levels in the presence and absence of synthetic peptides. Cells were grown in 10% fetal bovine serum, extensively rinsed, and incubated (18 h) with Dulbecco's modified Eagle's medium containing 0.1% bovine serum albumin plus the cAMP analog 8-bromo-cAMP. Cells were next exposed to synthetic peptides or serum-free medium in the absence of the cAMP stimulus to evaluate whether ABCA1 protein was stabilized or degraded. Relative levels of ABCA1 protein were assessed by immunoblot analysis of cell membranes (Oram, J. F. et al., J. Biol. Chem., 278:52379-52385 (2003)). ABCA1 was visualized using an enhanced chemiluminescence detection assay.
To assess ABCA1 stabilization, J774 macrophages were treated with a cAMP analog to up-regulate ABCA1 protein expression and then incubated for 6 h without cAMP. In the absence of inducer, ABCA1 protein is rapidly degraded in these cells (FIG. 9). […] Thus, it appears that the helical combinations that stimulate cholesterol efflux also stabilize the ABCA1 transporter.

[3] = target: T1, ABCA1; assay: as above; format: cell-based; set-up: J774 macrophages were used to assess relative ABCA1 protein levels in the presence and absence of synthetic peptides; endogenous in cells; host or cells: J774 macrophages treated with a cAMP analog (CPT-cAMP or 8-bromo-cAMP); conditions: concentration dependence studies, J774 macrophages
[4] = target: T1, ABCA1; assay: Cellular cholesterol efflux from [3H]cholesterol-labeled J774 macrophages with and without cAMP analog; format: cell-based; set-up: endogenous in cells; host or cells: J774 macrophages treated with a cAMP analog (CPT-cAMP or 8-bromo-cAMP); conditions: for concentration at which cholesterol efflux reached maximal levels: cAMP-treated J774 cells; for ABCA1-dependent cholesterol efflux (result in words): lipid-free acceptor, J774 macrophages with vs without cAMP analog
Source text: Suitable cholesterol efflux assays are described in, e.g., Bielicki, J. K and Oda, M. N., Biochemistry, 41:2089-2096 (2002); Jia, Z. et al., Biochem. Biophys. Res. Common., 297:206-213 (2002). In some embodiments, a polypeptide known to mediate cholesterol efflux (e.g., helix 9/10 of Apo A-I) is used to screen for additional mediators of cholesterol efflux in a cell based assay. For example, cell lines in which cholesterol efflux can be enhanced using a cAMP analog that up-regulates ABCA1 protein expression (e.g., J774 macrophages) can conveniently be used to assess the ability of an Apo A-I, Apo A-II, Apo A-IV, Apo E, Apo C-I, Apo C-II, Apo C-III, or Serum Amyloid A peptide to mediate cholesterol efflux. The cells are incubated with labeled cholesterol (e.g., [^3H]cholesterol) under conditions appropriate for cholesterol uptake by the cells. cAMP or cAMP analogs (e.g., CPT-cAMP) is incubated with the cells for a suitable time before the initiation of cellular cholesterol efflux, i.e., prior to contacting the cells with helix 9/10 of Apo A-I or the test compound. Measurement of labeled cholesterol appearing in the medium is used to determine the cholesterol efflux mediating activity of the test compound.
Cellular Cholesterol Efflux Protocol—J774 macrophages were used to assess the cholesterol efflux properties of synthetic amphipathic α-helical peptides (Bielicki, J. K and Oda, M. N., Biochemistry, 41:2089-2096 (2002); Jia, Z. et al., Biochem. Biophys. Res. Common., 297:206-213 (2002)). This cell line was chosen because cholesterol efflux can be enhanced using a cAMP analog that up-regulates ABCA1 protein expression. The cells were seeded onto 24-well culture plates and labeled for 48 h with [^3H]cholesterol in RPMI 1640 supplemented with 1% fetal bovine serum. The cAMP analog CPT-cAMP was added (0.3 mM, final concentration) to the cells at least 12 h before the initiation of cellular cholesterol efflux. Synthetic peptides in lipid-free form were added to cells in serum-free RPMI. The lipid-free form of full-length recombinant apoA-I was used as a positive control to define apparent ABCA1-dependent cholesterol efflux in the presence and absence of cAMP stimulation. Efflux results were expressed as a percentage of the initial cellular [^3H] appearing in the medium as a function of time subtracting the background efflux obtained using serum-free medium alone.

[5] = DMPC clearance assay (solubilization of a turbid phospholipid solution); format: physicochemical
Source text: as §1, with “Peptides-In” for “Peptides—In”, “[…].,” for “Hagaman, K. A.,”

T1 sequence (P41233 whole entry): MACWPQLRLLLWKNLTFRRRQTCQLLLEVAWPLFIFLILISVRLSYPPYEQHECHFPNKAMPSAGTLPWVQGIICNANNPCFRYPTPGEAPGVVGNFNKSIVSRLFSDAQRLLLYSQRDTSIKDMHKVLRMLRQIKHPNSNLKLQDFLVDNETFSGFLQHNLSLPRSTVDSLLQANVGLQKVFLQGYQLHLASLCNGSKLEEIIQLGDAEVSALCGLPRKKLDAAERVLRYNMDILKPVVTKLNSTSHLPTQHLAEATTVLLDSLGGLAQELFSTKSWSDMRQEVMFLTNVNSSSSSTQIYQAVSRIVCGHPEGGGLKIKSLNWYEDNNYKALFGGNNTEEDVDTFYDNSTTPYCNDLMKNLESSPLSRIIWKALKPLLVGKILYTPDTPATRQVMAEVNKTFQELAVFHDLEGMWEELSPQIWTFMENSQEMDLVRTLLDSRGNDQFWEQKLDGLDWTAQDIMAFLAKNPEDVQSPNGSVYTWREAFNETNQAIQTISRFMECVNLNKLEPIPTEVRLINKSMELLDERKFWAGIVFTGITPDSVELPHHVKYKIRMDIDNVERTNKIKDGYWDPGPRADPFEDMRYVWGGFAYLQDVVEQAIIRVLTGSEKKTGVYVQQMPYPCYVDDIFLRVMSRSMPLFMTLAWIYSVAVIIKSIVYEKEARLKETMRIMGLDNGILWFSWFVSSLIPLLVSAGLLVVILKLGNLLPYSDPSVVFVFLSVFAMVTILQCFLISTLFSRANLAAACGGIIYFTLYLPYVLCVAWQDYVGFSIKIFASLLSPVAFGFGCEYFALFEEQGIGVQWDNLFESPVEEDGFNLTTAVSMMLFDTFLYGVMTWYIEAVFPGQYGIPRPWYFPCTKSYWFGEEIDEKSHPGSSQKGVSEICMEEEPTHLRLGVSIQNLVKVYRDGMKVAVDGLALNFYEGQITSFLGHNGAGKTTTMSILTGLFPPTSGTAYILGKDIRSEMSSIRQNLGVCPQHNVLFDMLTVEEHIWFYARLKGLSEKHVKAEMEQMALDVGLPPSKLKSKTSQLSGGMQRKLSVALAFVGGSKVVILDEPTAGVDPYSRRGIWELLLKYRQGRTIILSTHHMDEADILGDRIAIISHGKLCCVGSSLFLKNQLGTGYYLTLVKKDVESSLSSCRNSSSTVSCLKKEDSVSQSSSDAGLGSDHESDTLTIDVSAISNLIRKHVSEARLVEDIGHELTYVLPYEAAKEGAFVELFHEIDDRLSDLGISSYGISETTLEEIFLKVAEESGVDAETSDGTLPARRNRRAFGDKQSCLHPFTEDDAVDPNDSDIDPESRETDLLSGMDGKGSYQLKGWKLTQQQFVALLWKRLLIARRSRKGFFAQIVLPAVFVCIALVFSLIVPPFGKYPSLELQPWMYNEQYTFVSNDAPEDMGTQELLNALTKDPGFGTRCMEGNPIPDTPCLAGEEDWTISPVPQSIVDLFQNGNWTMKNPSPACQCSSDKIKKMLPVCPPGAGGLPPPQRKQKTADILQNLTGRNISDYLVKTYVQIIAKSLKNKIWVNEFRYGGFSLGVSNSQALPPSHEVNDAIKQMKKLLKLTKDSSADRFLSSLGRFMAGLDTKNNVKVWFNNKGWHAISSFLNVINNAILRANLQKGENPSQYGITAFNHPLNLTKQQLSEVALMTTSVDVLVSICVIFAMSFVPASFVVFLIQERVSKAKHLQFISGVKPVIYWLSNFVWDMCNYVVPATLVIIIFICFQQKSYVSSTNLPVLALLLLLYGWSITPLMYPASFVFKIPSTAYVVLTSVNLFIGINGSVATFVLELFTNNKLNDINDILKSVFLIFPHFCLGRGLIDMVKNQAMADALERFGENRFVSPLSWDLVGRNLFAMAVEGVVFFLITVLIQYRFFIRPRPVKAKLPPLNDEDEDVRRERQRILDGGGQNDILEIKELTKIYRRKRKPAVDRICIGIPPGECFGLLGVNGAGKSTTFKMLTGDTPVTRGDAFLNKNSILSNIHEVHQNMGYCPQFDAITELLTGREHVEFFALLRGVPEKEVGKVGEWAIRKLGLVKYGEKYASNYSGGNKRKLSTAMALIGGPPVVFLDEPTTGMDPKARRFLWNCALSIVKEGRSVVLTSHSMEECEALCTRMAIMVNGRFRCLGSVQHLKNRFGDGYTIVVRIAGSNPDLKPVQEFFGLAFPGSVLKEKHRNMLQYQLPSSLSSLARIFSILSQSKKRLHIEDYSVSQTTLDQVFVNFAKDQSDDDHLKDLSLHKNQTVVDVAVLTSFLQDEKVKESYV

Row | Compound | lipid binding affinity (surface balance technique), result in words [1] | Monolayer exclusion pressure [1] | ABCA1 stabilization (result in words) [2] | lowest concentration that prevented ABCA1 degradation [3] | concentration at which cholesterol efflux reached maximal levels [4] | ABCA1-dependent cholesterol efflux (result in words) [4] | DMPC clearance [5] | potency in mediating ABCA1-dependent cholesterol efflux relative to the 1/9 chimera ([4]; FIGS. 2B versus 3C) | concentration giving maximal ABCA1 stabilization and cholesterol efflux ([4]; both ABCA1 stabilization and cholesterol efflux)
1 | CC(=O)N[C@@H](CC(C)C)C(=O)N[C@@H](CCCCN)C(=O)N[C@@H](CC(C)C)C(=O)N[C@@H](CC(C)C)C(=O)N[C@@H](CC(=O)O)C(=O)N[C@@H](CC(N)=O)C(=O)N[C@@H](Cc1c[nH]c2ccccc12)C(=O)N[C@@H](CC(=O)O)C(=O)N[C@@H](CO)C(=O)N[C@H](C(=O)N[C@H](C(=O)N[C@@H](CO)C(=O)N[C@H](C(=O)N[C@@H](Cc1ccccc1)C(=O)N[C@@H](CO)C(=O)N[C@@H](CCCCN)C(=O)N[C@@H](CC(C)C)C(=O)N[C@@H](CCCNC(=N)N)C(=O)N[C@@H](CCC(=O)O)C(=O)N[C@@H](CCC(N)=O)C(=O)N[C@@H](CC(C)C)C(=O)NCC(=O)N1CCC[C@H]1C(=O)N[C@@H](C)C(=O)N[C@@H](CC(C)C)C(=O)N[C@@H](CCC(=O)O)C(=O)N[C@@H](CC(=O)O)C(=O)N[C@@H](CC(C)C)C(=O)N[C@@H](CCCNC(=N)N)C(=O)N[C@@H](CCC(N)=O)C(=O)NCC(=O)N[C@@H](CC(C)C)C(=O)N[C@@H](CC(C)C)C(N)=O)[C@@H](C)O)[C@@H](C)O)C(C)C [Helical peptide 1/9] (Ac-LKLLDNWDSVTSTFSKLREQLGPALEDLRQGLL-NH2) | identical | 31 dynes/cm | stabilized cellular ABCA1 protein to levels comparable with those observed when cells were exposed continuously to cAMP | 10 µg/mL | 50 µg/mL | stimulated cholesterol efflux in the absence and presence of CAMP stimulation similar to full-length apoA-I | + |  | 
2 | CC(=O)N1CCC[C@H]1C(=O)N[C@@H](C)C(=O)N[C@@H](CC(C)C)C(=O)N[C@@H](CCC(=O)O)C(=O)N[C@@H](CC(=O)O)C(=O)N[C@@H](CC(C)C)C(=O)N[C@@H](CCCNC(=N)N)C(=O)N[C@@H](CCC(N)=O)C(=O)NCC(=O)N[C@@H](CC(C)C)C(=O)N[C@@H](CC(C)C)C(=O)N1CCC[C@H]1C(=O)N[C@H](C(=O)N[C@@H](CC(C)C)C(=O)N[C@@H](CCC(=O)O)C(=O)N[C@@H](CO)C(=O)N[C@@H](Cc1ccccc1)C(=O)N[C@@H](CCCCN)C(=O)N[C@H](C(=O)N[C@@H](CO)C(=O)N[C@@H](Cc1ccccc1)C(=O)N[C@@H](CC(C)C)C(=O)N[C@@H](CO)C(=O)N[C@@H](C)C(=O)N[C@@H](CC(C)C)C(=O)N[C@@H](CCC(=O)O)C(=O)N[C@@H](CCC(=O)O)C(=O)N[C@@H](Cc1ccc(O)cc1)C(=O)N[C@H](C(=O)N[C@@H](CCCCN)C(=O)N[C@@H](CCCCN)C(=O)N[C@@H](CC(C)C)C(=O)N[C@@H](CC(N)=O)C(N)=O)[C@@H](C)O)C(C)C)C(C)C [Helical peptide 9/10] (Ac-PALEDLRQGLLPVLESFKVSFLSALEEYTKKLN-NH2) |  | 36 dynes/cm | stabilized cellular ABCA1 protein to levels comparable with those observed when cells were exposed continuously to cAMP | 10 µg/mL | 25 µg/mL | stimulated cholesterol efflux in an ABCA1-dependent manner | + | 2 fold | 10 to 25 µg/mL
